From US20080095720A1, “Skin Benefit Compositions with a Vanilloid Receptor Antagonist” (CONOPCO, INC., D/B/A UNILEVER, priority 2006, published 2008)

Biological target: T1, vanilloid receptor TRP-V1, VR-1 (Homo sapiens, UniProt Q8NER1)
T1 construct: endogenous in cells; host or cells: HaCaT keratinocytes
Assay: Interleukin-1α production in HaCaT keratinocytes treated with capsaicin with or without capsazepine
Type: cell-based
Description: Keratinocyte cell lines (HaCaT) were treated with about 1 μM capsaicin (an agonist of vanilloid receptor TRP-V1, VR-1). […] Antagonists of TRP-V1 are thereby expected to be a route to reduce inflammation in the skin when the same is subjected to an irritant.

T1 sequence (Q8NER1 whole entry): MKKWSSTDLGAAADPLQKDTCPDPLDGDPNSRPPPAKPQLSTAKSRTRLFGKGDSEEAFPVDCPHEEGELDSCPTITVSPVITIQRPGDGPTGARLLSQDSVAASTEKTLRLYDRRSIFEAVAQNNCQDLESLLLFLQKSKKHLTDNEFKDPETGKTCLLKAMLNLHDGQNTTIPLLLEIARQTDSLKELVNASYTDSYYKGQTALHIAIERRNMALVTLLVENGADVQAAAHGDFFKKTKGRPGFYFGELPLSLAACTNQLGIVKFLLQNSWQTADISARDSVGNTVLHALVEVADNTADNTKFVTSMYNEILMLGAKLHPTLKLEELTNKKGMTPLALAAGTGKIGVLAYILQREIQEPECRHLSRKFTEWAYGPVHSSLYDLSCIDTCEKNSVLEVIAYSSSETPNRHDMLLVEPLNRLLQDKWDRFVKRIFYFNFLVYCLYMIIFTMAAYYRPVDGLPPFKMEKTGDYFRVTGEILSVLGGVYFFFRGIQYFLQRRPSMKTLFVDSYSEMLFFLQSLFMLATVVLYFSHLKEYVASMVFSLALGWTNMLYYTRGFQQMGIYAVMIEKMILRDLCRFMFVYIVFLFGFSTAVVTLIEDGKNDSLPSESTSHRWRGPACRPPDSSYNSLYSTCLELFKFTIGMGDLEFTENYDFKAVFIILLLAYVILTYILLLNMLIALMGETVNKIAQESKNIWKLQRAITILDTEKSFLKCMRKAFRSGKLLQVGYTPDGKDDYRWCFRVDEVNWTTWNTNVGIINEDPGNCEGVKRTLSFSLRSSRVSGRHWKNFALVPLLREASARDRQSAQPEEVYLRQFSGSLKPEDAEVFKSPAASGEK

production of interleukin-1α (HaCaT keratinocyte cell lines, about 1 μM capsaicin, p<0.001)	interleukin-1α increase in response to capsaicin (HaCaT keratinocytes, capsaicin (1 μM) in the presence of about 3 μM capsazepine)	interleukin-1α levels (HaCaT keratinocytes, capsazepine alone)	SMILES
significant increase			COc1cc(CNC(=O)CCCC/C=C/C(C)C)ccc1O [capsaicin]
	blocked the interleukin-1α increase	no effect	Oc1cc2c(cc1O)CN(C(=S)NCCc1ccc(Cl)cc1)CCC2 [capsazepine]
